Structures can show the parent of a compound that is named as a salt. Where two headings read alike, the source gives them in different places.

A short description of data set [1]: Pharmacokinetics and oral bioavailability in the mouse. Format: in vivo. As to conditions: for F on AUC: 10 mg/kg, ratio of oral to IV dose-normalized AUC; for clearance / Vd / AUC / Cmax / half-life: male, Balb Nu/Nu, plasma, mean value; for clearance / Vd: 10 mg/kg intravenous bolus; for clearance: read-out: Cl (IV bolus); for Vd: read-out: Vdss (IV bolus); for AUC / Cmax / half-life: 10 mg/kg oral; for half-life: read-out: T½ (oral) (converted).

Data set [2] concerns hydrogen peroxide induced PAR formation in HeLa cells. Kind of data set: PAR assay: inhibition of hydrogen peroxide induced PAR formation in HeLa cells. Particulars: Homo sapiens, read-out: PAR assay (IC50 μM).
In a further data set the target is PARP-1 (Homo sapiens (Human), UniProt P09874). Kind of data set: Fluorescence polarization displacement assay with probe of formula (IP), PARP-1. Format: binding. As to conditions: for DC50: probe P1.
PARP-1, sequence (P09874 whole entry): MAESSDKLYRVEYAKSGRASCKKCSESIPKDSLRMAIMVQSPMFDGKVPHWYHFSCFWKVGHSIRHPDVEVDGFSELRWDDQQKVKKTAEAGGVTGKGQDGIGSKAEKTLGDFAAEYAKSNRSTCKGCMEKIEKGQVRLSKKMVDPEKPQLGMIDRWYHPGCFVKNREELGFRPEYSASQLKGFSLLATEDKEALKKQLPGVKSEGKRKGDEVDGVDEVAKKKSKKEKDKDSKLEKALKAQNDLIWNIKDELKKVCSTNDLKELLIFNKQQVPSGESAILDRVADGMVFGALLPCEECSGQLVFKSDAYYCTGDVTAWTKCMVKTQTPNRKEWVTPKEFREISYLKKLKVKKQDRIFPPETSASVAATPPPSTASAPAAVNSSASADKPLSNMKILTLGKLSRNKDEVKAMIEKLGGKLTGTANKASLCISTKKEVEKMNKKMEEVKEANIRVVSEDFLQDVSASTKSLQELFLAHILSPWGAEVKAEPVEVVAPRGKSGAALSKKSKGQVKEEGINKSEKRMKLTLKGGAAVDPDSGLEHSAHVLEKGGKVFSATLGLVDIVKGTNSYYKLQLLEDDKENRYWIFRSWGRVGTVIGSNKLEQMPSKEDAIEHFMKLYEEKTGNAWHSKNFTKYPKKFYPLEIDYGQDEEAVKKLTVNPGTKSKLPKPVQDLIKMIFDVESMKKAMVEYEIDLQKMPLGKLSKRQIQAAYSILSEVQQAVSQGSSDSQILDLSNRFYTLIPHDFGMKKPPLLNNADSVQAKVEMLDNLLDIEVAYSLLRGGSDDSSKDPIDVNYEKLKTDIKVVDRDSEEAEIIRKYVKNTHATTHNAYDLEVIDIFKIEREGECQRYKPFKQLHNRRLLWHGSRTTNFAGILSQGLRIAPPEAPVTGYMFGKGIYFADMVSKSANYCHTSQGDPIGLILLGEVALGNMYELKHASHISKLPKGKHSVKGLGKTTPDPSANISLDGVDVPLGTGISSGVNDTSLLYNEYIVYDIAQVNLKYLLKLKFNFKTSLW
The target of a further data set is PARP-2 (Homo sapiens (Human), UniProt Q9UGN5). Kind of data set: Fluorescence polarization displacement assay with probe of formula (IP), PARP-2. Particulars: probe P1. Format: binding.
PARP-2, sequence (Q9UGN5 whole entry): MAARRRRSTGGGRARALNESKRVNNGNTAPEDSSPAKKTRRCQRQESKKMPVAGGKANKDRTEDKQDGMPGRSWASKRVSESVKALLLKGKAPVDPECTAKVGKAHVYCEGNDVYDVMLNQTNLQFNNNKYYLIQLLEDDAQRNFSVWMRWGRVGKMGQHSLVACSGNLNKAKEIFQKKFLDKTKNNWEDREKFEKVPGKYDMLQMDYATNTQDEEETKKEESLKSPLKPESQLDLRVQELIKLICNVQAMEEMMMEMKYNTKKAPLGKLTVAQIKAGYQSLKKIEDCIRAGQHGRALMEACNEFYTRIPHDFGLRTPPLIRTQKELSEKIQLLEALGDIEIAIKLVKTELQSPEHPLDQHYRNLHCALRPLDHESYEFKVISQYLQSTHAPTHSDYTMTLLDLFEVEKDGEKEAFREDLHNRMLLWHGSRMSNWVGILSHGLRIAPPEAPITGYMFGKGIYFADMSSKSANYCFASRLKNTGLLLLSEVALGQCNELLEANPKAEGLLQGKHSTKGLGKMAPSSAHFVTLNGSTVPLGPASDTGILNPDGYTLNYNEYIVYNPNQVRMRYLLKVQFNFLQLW
The next data set addresses PARP-3 (Homo sapiens (Human), UniProt Q9Y6F1). Kind of data set: Fluorescence polarization displacement assay with probe of formula (IP), PARP-3. Format: binding. In general terms: In fluorescence polarisation assays a small probe gives low polarisation when free and higher when bound to something large.
Data set [3] relates to Capan-1 human pancreatic cancer tumors. Kind of data set: In vivo efficacy as single agent, Capan-1 BRCA-2 mutated mouse model. Particulars: 75 mg/kg oral daily; for Max TGI (%): single agent, Capan-1 xenograft; for Toxicity: body weight reduction, out of 7 mice treated.
Source text: Balb, athymic Nu/Nu male mice, from Harlan (Italy), were maintained in agreement with the European Communities Council Directive no. 86/609/EEC concerning the protection of animals used for experimental or other scientific purposes, in cages with paper filter cover, food and bedding sterilized and acidified water. Fragments of Capan-1 human pancreatic cancer tumors were implanted subcutaneously. […] Each group included seven animals. The treatment started one day after randomization. Compound of formula (I) was administered by oral route as a methocel suspension at the indicated doses and times. Tumor dimension was measured regularly by calipers during the experiments and tumor mass was calculated as described in Simeoni M. et al., Cancer Res 64, 1094-1101 (2004).
Another data set deals with BRCA-mutated cancer. Particulars: 19 patients with BRCA mutations and breast, ovarian and prostate cancer, phase I; cited from earlier work.
[4] abbreviates: probe P1; read-out: PARP-3 (DC50 μM).

PARP-3, sequence (Q9Y6F1 whole entry): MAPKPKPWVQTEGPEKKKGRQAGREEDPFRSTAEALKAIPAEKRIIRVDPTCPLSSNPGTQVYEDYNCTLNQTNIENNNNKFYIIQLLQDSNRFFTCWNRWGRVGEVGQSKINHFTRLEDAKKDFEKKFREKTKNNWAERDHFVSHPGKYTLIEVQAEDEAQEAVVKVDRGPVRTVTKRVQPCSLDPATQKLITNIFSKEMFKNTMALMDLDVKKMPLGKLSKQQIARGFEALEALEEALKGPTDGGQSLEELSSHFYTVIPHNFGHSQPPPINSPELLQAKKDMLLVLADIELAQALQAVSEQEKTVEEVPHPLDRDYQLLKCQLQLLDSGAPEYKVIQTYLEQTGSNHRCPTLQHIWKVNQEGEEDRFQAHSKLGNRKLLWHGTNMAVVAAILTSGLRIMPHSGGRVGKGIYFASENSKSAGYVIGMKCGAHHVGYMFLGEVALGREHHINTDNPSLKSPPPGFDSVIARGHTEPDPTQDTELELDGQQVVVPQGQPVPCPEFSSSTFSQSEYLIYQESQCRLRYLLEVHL
Procedure for PARP-1: (§1) Affinity evaluation of the tested compounds and their selectivity with respect to the different PARP isoforms of interest was assessed in a displacement assay.
(§2) b) comparing the polarization signal generated in the absence of the test compound with the one generated in the presence of different concentrations of the test compound, and
(§3) c) evaluating the ability of the test compound to displace the compound of formula (IP) as defined above indicated from a decreased fluorescence polarization level.
(§4) The 5H-phenanthridin-6-one-derived probe (IP) was selected for its capability of binding to the PARP proteins, both encompassing full-length native proteins and fragments thereof.
(§5) The polarization signal can be measured, e.g., by a plate reader such as the Saphire2 (Tecan). Data analysis was performed, e.g., by using the Dynafit software. Displacement data were also fitted, e.g., by using Excel spreadsheet (Microsoft Inc. Seattle, USA) to a four parameter logistic model (4PL), or Hill-Slope model. The assay was used to test compounds of the present invention. The displacement ability of the test compounds of formula (I) is in correlation with the compounds affinity for the NAD pocket of the enzyme.
Procedure for PARP-2: as §1, §2, §3, §4, §5
Procedure for PARP-3: as §1, §2, §3, §4, §5

The AUC is concentration integrated over time. As a reminder, the Cmax is the maximum level reached in the sampled fluid or tissue. On to `NC(=O)c1cccc2c1C(=O)N(CCN1CCc3ccccc3C1)C2` [(3), 2-[2-(3,4-dihydro-1H-isoquinolin-2-yl)-ethyl]-3-oxo-2,3-dihydro-1H-isoindole-4-carboxylic Acid Amide], for which, in data set [1], the “F on AUC” value worked out at 30%, the clearance was 63.1 mL/min/kg, the Vd turned out to be 1.54 L/kg and the AUC came to 2.51 µM·h. Besides, in data set [1], the peak level (Cmax) was 3.06 µM and the half-life is 40.8 min.
As a reminder, the IC50 is the concentration that gives 50% inhibition. As to `NC(=O)c1cccc2c1C(=O)N(C1CCN(Cc3cccs3)CC1)C2` [(9), 3-oxo-2-(1-thiophen-2-ylmethyl-piperidin-4-yl)-2,3-dihydro-1H-isoindole-4-carboxylic Acid Amide], in data set [2], the IC50 was 1.4 µM.
The Kd is the constant that tells how readily two partners part at equilibrium. Consider `NC(=O)c1cccc2c1C(=O)N(C1CCN(C3CCCCC3)CC1)C2` [(11), 2-(1-cyclohexyl-piperidin-4-yl)-3-oxo-2,3-dihydro-1H-isoindole-4-carboxylic Acid Amide], for which, at PARP-1, the Kd was below 0.01 µM and the DC50 is below 0.25 µM. On PARP-2, this compound registered a DC50 of 2.53 µM and a dissociation constant (Kd) of 1.4 µM. Also, the DC50 at PARP-3 (setting [4]) was 2.06 µM. Moreover, in data set [1], the “F on AUC” value was determined as 100%, the clearance was determined as 41.3 mL/min/kg, the Vd amounted to 4.47 L/kg and the AUC amounted to 20.4 µM·h. Also, in data set [1], the highest concentration (Cmax) is 3.87 µM and the half-life was 163 min. In data set [3], the “Max TGI (%)” value came to 42% and the Toxicity is 0/7. For the same compound, the IC50 in data set [2] came to 0.02 µM.
Take `NC(=O)c1cccc2c1C(=O)N(C1CCN(Cc3ccco3)CC1)C2` [(12), 2-(1-furan-2-ylmethyl-piperidin-4-yl)-3-oxo-2,3-dihydro-1H-isoindole-4-carboxylic Acid Amide]: the IC50 in data set [2] worked out at 3.9 µM.
In the case of `NC(=O)c1cccc2c1C(=O)N(C1CCN(Cc3ccoc3)CC1)C2` [(14), 2-(1-furan-3-ylmethyl-piperidin-4-yl)-3-oxo-2,3-dihydro-1H-isoindole-4-carboxylic Acid Amide], in data set [1], the “F on AUC” value stood at 57%, the clearance came out at 81.8 mL/min/kg, the Vd was determined as 2.68 L/kg and the AUC stood at 3.22 µM·h. Also, in data set [1], the peak concentration (Cmax) was 2.29 µM and the half-life was 53.4 min. Moreover, in data set [2], the IC50 came to 0.011 µM.
`NC(=O)c1cccc2c1C(=O)N(C1CCN(Cc3ccccn3)CC1)C2` [(15), 3-oxo-2-(1-pyridin-2-ylmethyl-piperidin-4-yl)-2,3-dihydro-1H-isoindole-4-carboxylic Acid Amide]: the DC50 on PARP-3 (setting [4]) came to 0.9 µM. Further, in data set [1], the “F on AUC” value is 68%, the clearance came out at 16.9 mL/min/kg, the Vd was determined as 0.79 L/kg and the exposure (AUC) is 19.2 µM·h. Besides, in data set [1], the Cmax stood at 8.73 µM and the half-life was 60.6 min. Moreover, in data set [3], the “Max TGI (%)” value was determined as 54% and the Toxicity is listed as 0/7.
Regarding `NC(=O)c1cccc2c1C(=O)N(C1CCN(Cc3ccc[nH]3)CC1)C2` [(16), 3-oxo-2-[1-(1H-pyrrol-2-ylmethyl)-piperidin-4-yl]-2,3-dihydro-1H-isoindole-4-carboxylic Acid Amide], in data set [1], the “F on AUC” value amounted to 37%, the clearance came out at 79.3 mL/min/kg, the Vd came out at 2.51 L/kg and the AUC came to 2.13 µM·h. Moreover, in data set [1], the Cmax came out at 2.97 µM and the half-life is 37.8 min. Further, in data set [2], the half-maximal inhibitory concentration (IC50) was determined as 0.02 µM.
As to `NC(=O)c1cccc2c1C(=O)N(CCCc1ccccc1)C2` [(17), 3-oxo-2-(3-phenyl-propyl)-2,3-dihydro-1H-isoindole-4-carboxylic Acid Amide], the IC50 in data set [2] was found to be 1.51 µM.
As to `NC(=O)c1cccc2c1C(=O)N(CCCN1CCc3ccccc3C1)C2` [(19), 2-[3-(3,4-dihydro-1H-isoquinolin-2-yl)-propyl]-3-oxo-2,3-dihydro-1H-isoindole-4-carboxylic Acid Amide], on PARP-1, the equilibrium dissociation constant (Kd) was below 0.03 µM and the DC50 was below 0.25 µM. Besides, the IC50 in data set [2] came to 0.33 µM.
With `NC(=O)c1cccc2c1C(=O)N(CCCN1CCCc3ccccc31)C2` [(20), 2-[3-(3,4-dihydro-2H-quinolin-1-yl)-propyl]-3-oxo-2,3-dihydro-1H-isoindole-4-carboxylic Acid Amide], at PARP-1, the Kd was below 0.03 µM and the DC50 was below 0.25 µM. Also, on PARP-2, the DC50 was determined as 0.58 µM and binding was characterised by a dissociation constant (Kd) of 0.19 µM. The IC50 in data set [2] came out at 0.83 µM.
Turning to `CN1CCN(CCCN2Cc3cccc(C(N)=O)c3C2=O)CC1` [(21), 2-[3-(4-methyl-piperazin-1-yl)-propyl]-3-oxo-2,3-dihydro-1H-isoindole-4-carboxylic Acid Amide], the DC50 on PARP-1 is 0.28 µM. The IC50 in data set [2] was found to be 0.6 µM.
With `NC(=O)c1cccc2c1C(=O)N(CCCN1CCN(c3ccccc3)CC1)C2` [(22), 3-oxo-2-[3-(4-phenyl-piperazin-1-yl)-propyl]-23-dihydro-1H-isoindole-4-carboxylic Acid Amide], on PARP-1, the Kd was below 0.03 µM and the DC50 was below 0.25 µM. Also, the DC50 on PARP-2 was found to be 2.12 µM. The IC50 in data set [2] amounted to 0.4 µM.
`NC(=O)c1cc(F)cc2c1C(=O)N(CCCN1CCOCC1)C2` [(23), 6-Fluoro-2-(3-morpholin-4-yl-propyl)-3-oxo-2,3-dihydro-1H-isoindole-4-carboxylic Acid Amide]: at PARP-1, the Kd is below 0.03 µM and the DC50 is below 0.25 µM. The compound also showed a DC50 on PARP-2 of 2 µM. In data set [2], the concentration for half-maximal inhibition (IC50) was 0.4 µM.
As for `NC(=O)c1cccc2c1C(=O)N(C1CCN(CC3CC3)CC1)C2` [(24), 2-(1-cyclopropylmethyl-piperidin-4-yl)-3-oxo-2,3-dihydro-1H-isoindole-4-carboxylic Acid Amide], the IC50 in data set [2] was 0.11 µM.
Compound `CC1CCCC(C)N1CCCN1Cc2cccc(C(N)=O)c2C1=O` (stereo not shown) [(27), 2-[3-(2,6-dimethyl-piperidin-1-yl)-propyl]-3-oxo-2,3-dihydro-1H-isoindole-4-carboxylic Acid Amide Hydrochloride] returned a DC50 on PARP-2 above 10 µM.
`NC(=O)c1cccc2c1C(=O)N(C1CCN(C3CCOCC3)CC1)C2` [(28), 3-ox-2-[1-(tetrahydro-pyran-4-yl)-piperidin-4-yl]-2,3-dihydro-1H-isoindole-4-carboxylic Acid Amide]: at PARP-3 (setting [4]), the DC50 was 5.48 µM.
On PARP-1, `NC(=O)c1cc(F)cc2c1C(=O)N(C1CCN(C3CCCCC3)CC1)C2` [(29), 2-(1-cyclohexyl-piperidin-4-yl)-6-fluoro-3-oxo-2,3-dihydro-1H-isoindole-4-carboxylic acid amide] displayed a Kd below 0.01 µM. In addition, the values for the DC50 at PARP-1, on PARP-2 and on PARP-3 (read-out: PARP-3 (DC50 μM); probe P1) were below 0.25 µM, 2.92 µM and 1 µM, respectively. Also, in data set [2], the IC50 is 0.5 µM.
In the case of `NC(=O)c1cccc2c1C(=O)N(C1CCN(Cc3ccccc3)CC1)C2` [(30), 2-(1-benzyl-piperidin-4-yl)-3-oxo-2,3-dihydro-1H-isoindole-4-carboxylic Acid Amide], the DC50 was below 0.25 µM on PARP-1 and 0.35 µM on PARP-3 (setting [4]).
Turning to `NC(=O)c1cccc2c1C(=O)N(CCC1CCN(Cc3ccccc3)CC1)C2` [(31), 2-[2-(1-benzyl-piperidin-4-yl)-ethyl]-3-oxo-2,3-dihydro-1H-isoindole-4-carboxylic Acid Amide Hydrochloride], the DC50 on PARP-1 was below 0.25 µM; on PARP-2, above 10 µM. In addition, in data set [2], the IC50 came to 0.2 µM.
On to `NC(=O)c1cccc2c1C(=O)N(CCCN1CCC(Cc3ccccc3)CC1)C2` [(32), 2-[3-(4-benzyl-piperidin-1-yl)-propyl]-3-oxo-2,3-dihydro-1H-isoindole-4-carboxylic Acid Amide], for which the IC50 in data set [2] worked out at 0.17 µM.
Regarding `O=C(c1cc(Cc2n[nH]c(=O)c3ccccc23)ccc1F)N1CCN(C(=O)C2CC2)CC1` [Olaparib], in the data set on BRCA-mutated cancer, the objective response rate is 47%.

The record behind these values is patent US10800739B2, “4-carboxamido-isoindolinone derivatives as selective PARP-1 inhibitors” (NERVIANO MEDICAL SCIENCES S.r.l, priority 2012, dated 2020).
